Reference: ChEMBL document CHEMBL3046407, “Toxicity of monoterpenes against larvae and adults of Colorado potato beetle, Leptinotarsa decemlineata Say (Coleoptera: Chrysomelidae)” (2007)

How the values were obtained:
Type in all cases: functional
[1] = system: Leptinotarsa decemlineata; assay: Insecticidal activity against adult Leptinotarsa decemlineata infested potato leaves assessed as mortality at 10 ul after 24 hr relative to control
[2] = system: Leptinotarsa decemlineata; assay: Insecticidal activity against second-instar larval stage of Leptinotarsa decemlineata infested potato leaves assessed as mortality at 10 ul after 24 hr (reference value: 3.3 +/- 3.3%)
[3] = system: Leptinotarsa decemlineata; assay: Insecticidal activity against adult Leptinotarsa decemlineata infested potato leaves assessed as mortality at 20 ul after 12 hr relative to control
[4] = system: Leptinotarsa decemlineata; assay: Insecticidal activity against adult Leptinotarsa decemlineata infested potato leaves assessed as mortality at 20 ul after 48 hr relative to control
[5] = system: Leptinotarsa decemlineata; assay: Insecticidal activity against third-instar larval stage of Leptinotarsa decemlineata infested potato leaves assessed as mortality at 20 ul after 48 hr (reference value: 3.3 +/- 3.3%)
[6] = system: Leptinotarsa decemlineata; assay: Insecticidal activity against third-instar larval stage of Leptinotarsa decemlineata infested potato leaves assessed as mortality at 10 ul after 24 hr relative to control
[7] = system: Leptinotarsa decemlineata; assay: Insecticidal activity against adult Leptinotarsa decemlineata infested potato leaves assessed as mortality at 20 ul after 24 hr relative to control
[8] = system: Leptinotarsa decemlineata; assay: Insecticidal activity against first-instar larval stage of Leptinotarsa decemlineata infested potato leaves assessed as mortality at 20 ul after 48 hr relative to control
[9] = system: Leptinotarsa decemlineata; assay: Insecticidal activity against third-instar larval stage of Leptinotarsa decemlineata infested potato leaves assessed as mortality at 20 ul after 96 hr (reference value: 3.3 +/- 3.3%)
[10] = system: Leptinotarsa decemlineata; assay: Insecticidal activity against third-instar larval stage of Leptinotarsa decemlineata infested potato leaves assessed as mortality at 10 ul after 48 hr (reference value: 3.3 +/- 3.3%)
[11] = system: Leptinotarsa decemlineata; assay: Insecticidal activity against adult Leptinotarsa decemlineata infested potato leaves assessed as mortality at 10 ul after 48 hr relative to control
[12] = system: Leptinotarsa decemlineata; assay: Insecticidal activity against second-instar larval stage of Leptinotarsa decemlineata infested potato leaves assessed as mortality at 20 ul after 48 hr (reference value: 3.3 +/- 3.3%)
[13] = system: Leptinotarsa decemlineata; assay: Insecticidal activity against third-instar larval stage of Leptinotarsa decemlineata infested potato leaves assessed as mortality at 10 ul after 12 hr relative to control
[14] = system: Leptinotarsa decemlineata; assay: Insecticidal activity against first-instar larval stage of Leptinotarsa decemlineata infested potato leaves assessed as mortality at 10 ul after 12 hr relative to control
[15] = system: Leptinotarsa decemlineata; assay: Insecticidal activity against second-instar larval stage of Leptinotarsa decemlineata infested potato leaves assessed as mortality at 20 ul after 24 hr (reference value: 3.3 +/- 3.3%)
[16] = system: Leptinotarsa decemlineata; assay: Insecticidal activity against second-instar larval stage of Leptinotarsa decemlineata infested potato leaves assessed as mortality at 10 ul after 96 hr (reference value: 3.3 +/- 3.3%)
[17] = system: Leptinotarsa decemlineata; assay: Insecticidal activity against second-instar larval stage of Leptinotarsa decemlineata infested potato leaves assessed as mortality at 10 ul after 48 hr (reference value: 3.3 +/- 3.3%)
[18] = system: Leptinotarsa decemlineata; assay: Insecticidal activity against first-instar larval stage of Leptinotarsa decemlineata infested potato leaves assessed as mortality at 10 ul after 24 hr relative to control
[19] = system: Leptinotarsa decemlineata; assay: Insecticidal activity against second-instar larval stage of Leptinotarsa decemlineata infested potato leaves assessed as mortality at 20 ul after 12 hr relative to control
[20] = system: Leptinotarsa decemlineata; assay: Insecticidal activity against third-instar larval stage of Leptinotarsa decemlineata infested potato leaves assessed as mortality at 20 ul after 12 hr relative to control
[21] = system: Leptinotarsa decemlineata; assay: Insecticidal activity against second-instar larval stage of Leptinotarsa decemlineata infested potato leaves assessed as mortality at 10 ul after 12 hr relative to control
[22] = system: Leptinotarsa decemlineata; assay: Insecticidal activity against adult Leptinotarsa decemlineata infested potato leaves assessed as mortality at 20 ul after 96 hr relative to control
[23] = system: Leptinotarsa decemlineata; assay: Insecticidal activity against second-instar larval stage of Leptinotarsa decemlineata infested potato leaves assessed as mortality at 20 ul after 96 hr (reference value: 3.3 +/- 3.3%)
[24] = system: Leptinotarsa decemlineata; assay: Insecticidal activity against adult Leptinotarsa decemlineata infested potato leaves assessed as mortality at 10 ul after 12 hr relative to control
[25] = system: Leptinotarsa decemlineata; assay: Insecticidal activity against first-instar larval stage of Leptinotarsa decemlineata infested potato leaves assessed as mortality at 20 ul after 24 hr relative to control
[26] = system: Leptinotarsa decemlineata; assay: Insecticidal activity against third-instar larval stage of Leptinotarsa decemlineata infested potato leaves assessed as mortality at 20 ul after 24 hr relative to control
[27] = system: Leptinotarsa decemlineata; assay: Insecticidal activity against first-instar larval stage of Leptinotarsa decemlineata infested potato leaves assessed as mortality at 10 ul after 96 hr relative to control
[28] = system: Leptinotarsa decemlineata; assay: Insecticidal activity against first-instar larval stage of Leptinotarsa decemlineata infested potato leaves assessed as mortality at 20 ul after 12 hr relative to control
[29] = system: Leptinotarsa decemlineata; assay: Insecticidal activity against first-instar larval stage of Leptinotarsa decemlineata infested potato leaves assessed as mortality at 20 ul after 96 hr relative to control
[30] = system: Leptinotarsa decemlineata; assay: Insecticidal activity against third-instar larval stage of Leptinotarsa decemlineata infested potato leaves assessed as mortality at 10 ul after 96 hr (reference value: 3.3 +/- 3.3%)
[31] = system: Leptinotarsa decemlineata; assay: Insecticidal activity against first-instar larval stage of Leptinotarsa decemlineata infested potato leaves assessed as mortality at 10 ul after 48 hr relative to control
[32] = system: Leptinotarsa decemlineata; assay: Insecticidal activity against adult Leptinotarsa decemlineata infested potato leaves assessed as mortality at 10 ul after 96 hr relative to control

Compound | mortality [1] [%] | mortality [2] [%] | mortality [3] [%] | mortality [4] [%] | mortality [5] [%] | mortality [6] [%] | mortality [7] [%] | mortality [8] [%] | mortality [9] [%] | mortality [10] [%] | mortality [11] [%] | mortality [12] [%] | mortality [13] [%] | mortality [14] [%] | mortality [15] [%] | mortality [16] [%] | mortality [17] [%] | mortality [18] [%] | mortality [19] [%] | mortality [20] [%] | further results
C=C(C)C1CC=C(C)C(=O)C1 (centres undefined) [CARVONE] | 26.7 | 53.3 | 3.3 | 100 | 90 | 13.3 | 36.7 | 43.3 | 90 | 13.3 | 66.7 | 86.7 | 6.7 | 16.7 | 83.3 | 63.3 | 63.3 | 43.3 | 53.3 | 23.3 | mortality [21]: 33.3%; mortality [22]: 100%; mortality [23]: 90%; mortality [24]: 0%; mortality [25]: 30%; mortality [26]: 86.7%; mortality [27]: 63.3%; mortality [28]: 10%; mortality [29]: 56.7%; mortality [30]: 16.7%; mortality [31]: 43.3%; mortality [32]: 93.3%
CC(C)=CCCC(C)CCO (centres undefined) [CITRONELLOL] | 13.3 | 40 | 0 | 0 | 6.7 | 20 | 0 | 16.7 | 16.7 | 23.3 | 13.3 | 23.3 | 20 | 6.7 | 20 | 50 | 46.7 | 40 | 16.7 | 3.3 | mortality [21]: 6.7%; mortality [22]: 0%; mortality [23]: 26.7%; mortality [24]: 13.3%; mortality [25]: 3.3%; mortality [26]: 3.3%; mortality [27]: 50%; mortality [28]: 0%; mortality [29]: 26.7%; mortality [30]: 26.7%; mortality [31]: 46.7%; mortality [32]: 13.3%
C=C(C)[C@@H]1CC[C@@H](C)C(=O)C1 [DIHYDROCARVONE] | 30 | 63.3 | 0 | 63.3 | 60 | 16.7 | 23.3 | 70 | 76.7 | 16.7 | 53.3 | 86.7 | 0 | 0 | 83.3 | 83.3 | 76.7 | 33.3 | 36.7 | 16.7 | mortality [21]: 23.3%; mortality [22]: 80%; mortality [23]: 100%; mortality [24]: 6.7%; mortality [25]: 50%; mortality [26]: 46.7%; mortality [27]: 40%; mortality [28]: 26.7%; mortality [29]: 80%; mortality [30]: 23.3%; mortality [31]: 33.3%; mortality [32]: 63.3%
CC1=CCC(C(C)C)=CC1 [GAMMA-TERPINENE] | 40 | 100 | 46.7 | 100 | 33.3 | 26.7 | 96.7 | 100 | 50 | 30 | 66.7 | 100 | 16.7 | 43.3 | 100 | 100 | 100 | 100 | 100 | 10 | mortality [21]: 90%; mortality [22]: 100%; mortality [23]: 100%; mortality [24]: 20%; mortality [25]: 100%; mortality [26]: 16.7%; mortality [27]: 100%; mortality [28]: 100%; mortality [29]: 100%; mortality [30]: 33.3%; mortality [31]: 100%; mortality [32]: 90%
CC(=O)OC/C=C(\C)CCC=C(C)C [GERANYL ACETATE] | 3.3 | 3.3 | 3.3 | 16.7 | 16.7 | 10 | 10 | 10 | 16.7 | 13.3 | 10 | 23.3 | 6.7 | 0 | 10 | 20 | 20 | 0 | 6.7 | 6.7 | mortality [21]: 3.3%; mortality [22]: 26.7%; mortality [23]: 23.3%; mortality [24]: 0%; mortality [25]: 6.7%; mortality [26]: 16.7%; mortality [27]: 6.7%; mortality [28]: 0%; mortality [29]: 16.7%; mortality [30]: 13.3%; mortality [31]: 0%; mortality [32]: 10%
C=C(C)C1CCC2(C)OC2C1 (centres undefined) [LIMONENE OXIDE] | 16.7 | 73.3 | 16.7 | 40 | 46.7 | 23.3 | 20 | 100 | 56.7 | 43.3 | 20 | 93.3 | 13.3 | 26.7 | 93.3 | 90 | 83.3 | 53.3 | 60 | 13.3 | mortality [21]: 30%; mortality [22]: 56.7%; mortality [23]: 96.7%; mortality [24]: 10%; mortality [25]: 93.3%; mortality [26]: 33.3%; mortality [27]: 93.3%; mortality [28]: 70%; mortality [29]: 100%; mortality [30]: 46.7%; mortality [31]: 80%; mortality [32]: 30%
C=CC(C)(O)CCC=C(C)C (centres undefined) [LINALOOL] | 73.3 | 73.3 | 30 | 100 | 36.7 | 13.3 | 73.3 | 100 | 40 | 20 | 83.3 | 100 | 3.3 | 26.7 | 93.3 | 100 | 76.7 | 53.3 | 36.7 | 6.7 | mortality [21]: 20%; mortality [22]: 100%; mortality [23]: 100%; mortality [24]: 16.7%; mortality [25]: 93.3%; mortality [26]: 33.3%; mortality [27]: 100%; mortality [28]: 40%; mortality [29]: 100%; mortality [30]: 23.3%; mortality [31]: 63.3%; mortality [32]: 90%
